In patent US11149031B2, “Substituted N-(3-fluoropropyl)-pyrrolidine compounds, processes for their preparation and therapeutic uses thereof” (SANOFI, priority 2016, dated 2021):
pIC50: −log10 of the molar value. Read-outs that look alike come from different tables or passages of the source.

How the values were obtained:
[1] = target: His6-ERα298-554 D538G mutant (ERα ligand-binding domain) (Homo sapiens (Human), UniProt P03372, D538G); test: Test A: biochemical antagonist activity, LanthaScreen TR-FRET ERα coactivator assay, D538G mutant; conditions: read-out: Antagonism D538G IC50
Chain of His6-ERα298-554 D538G mutant (ERα ligand-binding domain) (P03372 298-554 D538G): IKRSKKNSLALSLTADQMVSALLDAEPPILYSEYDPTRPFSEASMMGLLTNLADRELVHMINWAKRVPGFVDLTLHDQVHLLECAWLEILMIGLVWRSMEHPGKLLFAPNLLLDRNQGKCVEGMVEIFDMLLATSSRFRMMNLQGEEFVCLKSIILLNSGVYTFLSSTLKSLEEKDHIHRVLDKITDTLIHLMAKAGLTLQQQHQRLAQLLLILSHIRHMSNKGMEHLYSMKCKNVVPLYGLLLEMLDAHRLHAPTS
Summary of the method: (§1)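 Compounds were added to receptor LBD (0.5 nM), terbium-labelled His6 antibody (0.5 nM), PGC1a coactivator peptide (250 nM) and estradiol at 3 nM or 10 nM. After incubating overnight at room temperature, the 520:495 nm ratio gave IC50 values by four-parameter logistic regression.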

[2] = target: His6-ERα298-554 WT (ERα ligand-binding domain) (Homo sapiens (Human), UniProt P03372); test: Test A: biochemical antagonist activity, LanthaScreen TR-FRET ERα coactivator assay, WT; conditions: read-out: Antagonism WT IC50
Chain of His6-ERα298-554 WT (ERα ligand-binding domain) (P03372 298-554): as the sequence (P03372 298-554 D538G) above, with G241D counted along it
Summary of the method: as §1

[3] = test system: MCF7 cells (breast tumor cells) WT; test: Test B: cell proliferation/viability assay (CellTiter-Glo) on MCF7 WT; format: cell-based; conditions: 7 days of compound exposure
Procedure: (§2) Test B: Cell Proliferation/Viability Assay on MCF7 (Breast Tumor Cells) WT and Mutants Cell Lines
(§3) Test B involves measuring the in vitro proliferation activity of the compounds of the invention by analyzing the viability of the tumor cells.
The measurements of the viability were made using a breast cancer cell viability assay as described hereunder. […]
(§4) MCF7 cells (ATCC) or MCF7 cells expressing (and dependent) on mutants estrogen receptor Tyr 537 Ser or Asp 538 Gly were seeded in 384 wells microplate at concentration of >999 cells/30 μL per well in red phenol free MEM medium containing 5% charcoal dextran striped FBS. The following day, 9 points serial 1:5 dilution of each compound were added to the cells in 20 μL at final concentrations ranging from 3-0.000001 μM. After 7 days of compound exposure, 50 μL of CellTiter-Glo (promega) was added to the cells and relative luminescence arbitrary units (RLUs) were determined in luminescence plate reader (Envision device). CellTiter-Glo was added to 50 μL medium without cells to determine the background signal.
(§5) The percent of viability of each sample was determined as follows: (RLU sample−RLU background/RLU untreated−RLU background)*100=% viability.

[4] = test system: MCF7 cells expressing mutant estrogen receptor Asp 538 Gly; test: Test B: cell proliferation/viability assay (CellTiter-Glo) on MCF7 Asp 538 Gly mutant; format: cell-based; conditions: MCF7 cells expressing ER Asp 538 Gly mutant, 7 days of compound exposure, read-out: proliferation MCF7 D538G IC50
From the text: as §2, §3
(§6) The measurements of the viability were made using a breast cancer cell viability assay as described hereunder.
(§7) MCF7 cells expressing (and dependent) on mutants estrogen receptor Tyr 537 Ser or Asp 538 Gly were generated by transfection of MCF7 parental cells (ATCC) with expression vectors coding for different mutants of estrogen receptor Tyr 537 Ser or Asp 538 Gly. The cells were first selected by antibiotic (related to vector expression) and then selected for their growth dependence on estrogen receptor based on their ability to grow in vitro in absence of estradiol (parental cell line die in absence of estradiol).
as §4, §5

[5] = test system: MCF7 cells expressing mutant estrogen receptor Tyr 537 Ser; test: Test B: cell proliferation/viability assay (CellTiter-Glo) on MCF7 Tyr 537 Ser mutant; format: cell-based; conditions: MCF7 cells expressing ER Tyr 537 Ser mutant, 7 days of compound exposure, read-out: proliferation MCF7 Y537S IC50
From the text: as §2, §3, §6, §7, §4, §5

[6] = target: His6-ERα298-554 Y537S mutant (ERα ligand-binding domain) (Homo sapiens (Human), UniProt P03372, Y537S); test: Test A: biochemical antagonist activity, LanthaScreen TR-FRET ERα coactivator assay, Y537S mutant; conditions: read-out: Antagonism Y537S IC50
Chain of His6-ERα298-554 Y537S mutant (ERα ligand-binding domain) (P03372 298-554 Y537S): as the sequence (P03372 298-554 D538G) above, with Y240S, G241D counted along it
Summary of the method: as §1

[7] = target: ERα in MCF7 cells (Homo sapiens (Human), UniProt P03372); test: Test C: estrogen receptor degradation activity, ERα in cell western assay in MCF7 cells; format: cell-based; conditions: for DC50: 4 hours post compound addition, ERα in cell western, read-out: Degradation IC50; for % Degradation at 3 μM: 4 hours, relative to fulvestrant
Chain of ERα in MCF7 cells (P03372 whole entry): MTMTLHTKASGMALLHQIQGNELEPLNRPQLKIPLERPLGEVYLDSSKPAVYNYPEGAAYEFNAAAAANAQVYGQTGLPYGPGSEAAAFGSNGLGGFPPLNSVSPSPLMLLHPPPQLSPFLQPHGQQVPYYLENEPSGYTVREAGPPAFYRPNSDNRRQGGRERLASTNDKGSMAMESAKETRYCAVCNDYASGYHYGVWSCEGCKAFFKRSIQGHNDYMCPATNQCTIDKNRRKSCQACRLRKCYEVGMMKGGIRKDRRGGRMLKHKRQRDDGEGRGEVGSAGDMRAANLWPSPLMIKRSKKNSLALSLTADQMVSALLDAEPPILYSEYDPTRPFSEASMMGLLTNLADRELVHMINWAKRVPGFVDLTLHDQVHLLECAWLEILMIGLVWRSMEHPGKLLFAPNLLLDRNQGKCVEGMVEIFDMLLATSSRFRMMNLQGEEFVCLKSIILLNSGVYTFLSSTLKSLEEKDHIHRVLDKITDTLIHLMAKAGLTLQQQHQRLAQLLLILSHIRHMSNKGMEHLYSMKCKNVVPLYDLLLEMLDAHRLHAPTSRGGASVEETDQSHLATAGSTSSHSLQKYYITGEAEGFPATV
Summary of the method: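 In-cell western: ERα level (green) against DNA stain Syto-64 (red) by integrated intensity. MCF7 cells in hormone-depleted medium exposed 4 h to compound at 3-0.000018 μM final (1:5 series); fulvestrant 0.1 μM as positive control.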

[8] = asterisk (*): protocol using 10 nM estradiol

Row | SMILES | pIC50 [1, 8] | pIC50 [2, 8] | pIC50 [3] | pIC50 [4] | pIC50 [5] | pIC50 [6, 8] | DC50 [7] | % Degradation at 3 μM [7] | pIC50 ([3]; Homo sapiens, MCF7, 168 h) | pIC50 ([4]; Homo sapiens, MCF7, 168 h) | pIC50 ([5]; Homo sapiens, MCF7, 168 h) | pIC50 ([1]; protocol with 3 nM estradiol) | pIC50 ([2]; protocol with 3 nM estradiol) | pIC50 ([6]; protocol with 3 nM estradiol)
1 | Cc1ccc(C2=C(c3ccc(O[C@H]4CCN(CCCF)C4)cc3)c3ccc(O)cc3[S+]([O-])C2)c(F)c1 (single isomer, unassigned) [Example 71] | < 5.40 | 5.56 | 7.92 | 7.06 | 6.38 | < 5.40 | 11 nM | 75% | – | – | – | – | – | –
2 | [O-][S+]1CCC(c2ccc(OC(F)(F)F)cc2)=C(c2ccc(O[C@H]3CCN(CCCF)C3)cc2)c2ccc(O)cc21 (single isomer, unassigned) [Example 226] | < 5.40 | < 5.40 | 7.06 | 6.54 | < 6.00 | < 5.40 | 103 nM | 93% | – | – | – | – | – | –
3 | [O-][S+]1CCC(c2ccc(OC(F)(F)F)cc2)=C(c2ccc(O[C@H]3CCN(CCCF)C3)cc2)c2ccc(O)cc21 (single isomer, unassigned) [Example 227] | 5.48 | 6.41 | 8.22 | 8.05 | 6.87 | 5.46 | 4 nM | 90% | – | – | – | – | – | –
4 | CC1Cc2c([nH]c3ccccc23)C(c2c(F)cc(O[C@H]3CCN(CCCF)C3)cc2F)N1CC(C)(C)F (single isomer, unassigned) [Example 256] | 6.92 | 8.22 | 10.00 | 9.15 | 8.70 | 7.00 | 0.2 nM | 91% | – | – | – | – | – | –
5 | CC1Cc2c([nH]c3ccccc23)C(c2c(F)cc(O[C@H]3CCN(CCCF)C3)cc2F)N1CC(C)(C)F (single isomer, unassigned) [Example 257] | < 5.40 | 5.48 | 7.74 | 7.07 | 6.57 | < 5.40 | 37 nM | 87% | – | – | – | – | – | –
6 | Oc1ccc2c(c1)C(c1ccc(O[C@H]3CCN(CCCF)C3)cc1)=C(c1ccc(OC(F)(F)F)cc1Cl)CC2 [Example 7, 7-[2-chloro-4-(trifluoromethoxy)phenyl]-8-[4-[(3S)-1-(3-fluoropropyl)pyrrolidin-3-yl]oxyphenyl]-5,6-dihydronaphthalen-2-ol] | < 5.40 | 5.83 | – | – | – | < 5.40 | 22 nM | 82% | 7.89 | 7.74 | < 6.00 | – | – | –
7 | Oc1ccc2c(c1)C(c1ccc(O[C@H]3CCN(CCCF)C3)cc1)=C(c1ccc(OC(F)(F)F)cc1)CC2 [Example 8, 8-[4-[(3S)-1-(3-fluoropropyl)pyrrolidin-3-yl]oxyphenyl]-7-[4-(trifluoromethoxy)phenyl]-5,6-dihydronaphthalen-2-ol] | < 5.40 | 5.86 | – | – | – | < 5.40 | 25 nM | 84% | < 6.00 | < 6.00 | < 6.00 | – | – | –
8 | Oc1ccc2c(c1)C(c1ccc(O[C@H]3CCN(CCCF)C3)cc1)=C(c1ccc(SC(F)(F)F)cc1)CC2 [Example 9, 8-[4-[(3S)-1-(3-fluoropropyl)pyrrolidin-3-yl]oxyphenyl]-7-[4-(trifluoromethylsulfanyl)phenyl]-5,6-dihydronaphthalen-2-ol] | < 5.40 | 5.64 | – | – | – | < 5.40 | 28 nM | 79% | 7.36 | 7.33 | < 6.00 | – | – | –
9 | Oc1ccc2c(c1)C(c1ccc(O[C@H]3CCN(CCCF)C3)cc1)=C(c1ccc(OC(F)(F)F)cc1F)CC2 [Example 10, 8-[4-[(3S)-1-(3-fluoropropyl)pyrrolidin-3-yl]oxyphenyl]-7-[2-fluoro-4-(trifluoromethoxy)phenyl]-5,6-dihydronaphthalen-2-ol] | < 5.40 | 5.90 | – | – | – | < 5.40 | 15 nM | 78% | 7.07 | 7.54 | < 6.00 | – | – | –
10 | CC(C)(C)c1ccc(C2=C(c3ccc(O[C@H]4CCN(CCCF)C4)cc3)c3cc(O)ccc3CC2)cc1 [Example 11, 7-(4-tert-butylphenyl)-8-[4-[(3S)-1-(3-fluoropropyl)pyrrolidin-3-yl]oxyphenyl]-5,6-dihydronaphthalen-2-ol] | < 5.40 | < 5.40 | – | – | – | < 5.40 | 49 nM | 80% | 7.36 | 6.79 | < 6.00 | – | – | –
11 | Cc1ccc(C2=C(c3ccc(O[C@H]4CCN(CCCF)C4)cc3)c3ccc(O)cc3SC2)c(F)c1 [Example 16, 3-(2-fluoro-4-methyl-phenyl)-4-[4-[(3S)-1-(3-fluoropropyl)pyrrolidin-3-yl]oxyphenyl]-2H-thiochromen-7-ol] | – | – | – | – | – | – | 1 nM | 90% | 9.05 | 8.70 | 8.00 | 7.80 | 8.40 | 8.22
12 | Cc1cc(C2=C(c3ccc(O[C@H]4CCN(CCCF)C4)cc3)c3ccc(O)cc3SC2)ccc1Cl [Example 17, 3-(4-chloro-3-methyl-phenyl)-4-[4-[(3S)-1-(3-fluoropropyl)pyrrolidin-3-yl]oxyphenyl]-2H-thiochromen-7-ol] | – | – | – | – | – | – | 2 nM | 87% | 9.40 | 9.00 | 8.52 | 7.41 | 8.15 | 7.85
13 | Oc1ccc2c(c1)SCC(c1ccc(Cl)cc1F)=C2c1ccc(O[C@H]2CCN(CCCF)C2)cc1 [Example 18, 3-(4-chloro-2-fluoro-phenyl)-4-[4-[(3S)-1-(3-fluoropropyl)pyrrolidin-3-yl]oxyphenyl]-2H-thiochromen-7-ol] | – | – | – | – | – | – | 0.6 nM | 90% | 9.30 | 9.00 | 8.15 | 7.41 | 8.05 | 7.82
14 | COc1ccc(C2=C(c3ccc(O[C@H]4CCN(CCCF)C4)cc3)c3ccc(O)cc3SC2)cc1F [Example 23, 3-(3-fluoro-4-methoxy-phenyl)-4-[4-[(3S)-1-(3-fluoropropyl)pyrrolidin-3-yl]oxyphenyl]-2H-thiochromen-7-ol] | 6.10 | 7.30 | – | – | – | 6.17 | 0.3 nM | 93% | 8.15 | 7.85 | < 6.00 | – | – | –
15 | COc1ccc(C2=C(c3ccc(O[C@H]4CCN(CCCF)C4)cc3)c3ccc(O)cc3SC2)c(F)c1 [Example 24, 3-(2-fluoro-4-methoxy-phenyl)-4-[4-[(3S)-1-(3-fluoropropyl)pyrrolidin-3-yl]oxyphenyl]-2H-thiochromen-7-ol] | 7.10 | 8.30 | – | – | – | 7.36 | 0.2 nM | 91% | 9.52 | 9.05 | 8.22 | – | – | –
